Data on 5 compounds can be found in patent US20240101564A1, “SALTS OF A PI3Kdelta INHIBITOR, CRYSTALLINE FORMS, METHODS OF PREPARATION, AND USES THEREFORE” (BeiGene Switzerland GmbH, priority 2021, published 2024).

SMILES strings stand for the structures.

Data set [1] can be described thus: pharmacokinetic properties of different salts in Sprague-Dawley rats after oral administration. The data set is classed as in vivo. The note with it: male SD rats, single oral 10 mg·kg^−1 (as free base), 0.5% MC, fasted. How it is done:
The oral dosing solution was prepared as follows: […] of a test compound was weighed and dispersed in 10 mL of 0.5% methyl cellulose (MC). The final concentration of the test compound is 1 mg·mL^−1 (Calculated by free freebase).
Male Sprague-Dawley rats (also summarized in Table 27) were housed in solid bottom polypropylene cages with sterilized bedding and receive sterilized diet and sterilized water. The room was controlled and monitored for humidity (targeted mean range 40% to 70%) and temperature (targeted mean range 18° C. to 26° C.) with 10 to 20 air changes/hour. The light cycle was maintained at 12-h light and 12-h dark. Only animals that appeared to be healthy were selected for this study based on overall health, body weight, or other relevant information.
The male Sprague-Dawley rats were fasted overnight with free access to drinking water prior to treatment. On day 1, the animals were weighed and actual dose volume for each animal was calculated using the formula below: […]
Three rats for each group were given a single oral dose of 10 mg·kg^−1. The dosing solutions were freshly prepared prior to dose administration. The actual body weights and actual volume injected were recorded accordingly. Four hours after dosing, the rats were allowed to intake food.
Blood samples (˜150 μL) were collected at different times from the jugular vein catheter into EDTA-K2 coated tubes. Whole blood was processed by centrifugation at 3000 g for 10 min. Plasma samples were collected and kept at −80° C. freezer prior to analysis. The blood sampling time was recorded accordingly.
The dose samples of PO were diluted with MeOH:H2O (4:1, v/v) to achieve the concentration of 2 μg·mL^−1, respectively. Then, 2.5 μL of the diluted samples were added with 47.5 μL blank plasma, and then were handled as the plasma sample procedure. An aliquot of 10 μL of the mixture was injected into the LC-MS/MS system.

The subject of data set [2] is tumor xenografts. The experiment in a line: tumor xenografts engrafted subcutaneously or systemically in mice. The data set is classed as in vivo. Particulars: xenografts subcutaneous or systemic in mice.
The subject of data set [3] is cancer cell lines. The data set can be described thus: cellular growth of cancer cell lines in vitro. The data set is classed as cell-based. The note with it: several cancer cell lines in vitro.
Data set [4] has as its target PI3Kδ (Homo sapiens, UniProt O00329). The experiment in a line: PI3Kδ inhibition in biochemical and cellular assays.
Data set [5] can be described thus: DVS (water sorption) test of fumarate crystal forms. The data set is classed as physicochemical. The note with it: for water uptake in DVS: humidity increased. How it is done: DVS testing on fumarate Type A was performed starting from 25° C./70% RH.
DVS test on Type D was started at 25° C./60% RH to avoid any unnecessary form change for the starting form. […] Thus, fumarate Type D was speculated to be stable lower than 60% RH.
DVS testing on fumarate Type F was started at 25° C./80% RH to avoid any unnecessary form change for the starting form.

The nature of data set [6]: solid-state stability tests (HPLC and XRPD after storage for one week). The data set is classed as physicochemical. Particulars: for HPLC (area %), One week / XRPD form after storage (form change) / difference of HPLC purity after storage: 25° C./60% RH and 40° C./75% RH, one week. The protocol:
Fumarate Type D and Type F were further evaluated by solid-state stability tests under 25° C./60% RH and 40° C./75% RH for one week.
In the experiments, about 15 mg of solids was added into an HPLC vial, which was then sealed with parafilm and pricked with 10 holes. Place the vial under corresponding condition and test the solids by HPLC and XRPD after one week.

Data set [7] is described as follows: long-term stability, 3-month experiment. The data set is classed as physicochemical.

Sequence of PI3Kδ (O00329 whole entry, species assumed): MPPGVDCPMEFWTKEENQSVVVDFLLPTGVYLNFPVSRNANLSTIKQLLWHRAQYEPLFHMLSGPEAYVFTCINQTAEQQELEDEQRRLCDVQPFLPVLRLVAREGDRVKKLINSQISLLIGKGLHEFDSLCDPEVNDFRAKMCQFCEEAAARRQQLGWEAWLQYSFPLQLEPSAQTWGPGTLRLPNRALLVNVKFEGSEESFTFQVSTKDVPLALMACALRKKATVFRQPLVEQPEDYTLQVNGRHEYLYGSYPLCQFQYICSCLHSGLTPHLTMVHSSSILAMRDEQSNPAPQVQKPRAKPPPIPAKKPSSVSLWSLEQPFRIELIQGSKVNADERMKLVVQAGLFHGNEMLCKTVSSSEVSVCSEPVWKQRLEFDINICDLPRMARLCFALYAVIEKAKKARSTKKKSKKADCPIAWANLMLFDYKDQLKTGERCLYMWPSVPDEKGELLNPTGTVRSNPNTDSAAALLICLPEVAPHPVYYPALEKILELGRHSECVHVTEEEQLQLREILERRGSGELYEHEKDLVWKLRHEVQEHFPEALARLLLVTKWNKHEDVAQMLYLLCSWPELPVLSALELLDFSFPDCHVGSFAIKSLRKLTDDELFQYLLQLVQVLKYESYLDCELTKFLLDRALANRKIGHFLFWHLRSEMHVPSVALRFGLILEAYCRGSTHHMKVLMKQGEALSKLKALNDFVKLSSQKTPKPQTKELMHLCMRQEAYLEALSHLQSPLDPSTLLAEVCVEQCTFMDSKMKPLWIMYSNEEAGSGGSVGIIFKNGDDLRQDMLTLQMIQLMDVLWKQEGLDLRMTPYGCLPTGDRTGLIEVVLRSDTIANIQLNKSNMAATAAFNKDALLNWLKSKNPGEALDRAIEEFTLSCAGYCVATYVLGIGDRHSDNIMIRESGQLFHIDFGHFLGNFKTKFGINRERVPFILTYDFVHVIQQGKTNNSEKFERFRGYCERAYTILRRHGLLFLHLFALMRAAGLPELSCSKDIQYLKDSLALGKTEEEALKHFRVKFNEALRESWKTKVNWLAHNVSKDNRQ
Sequence of PI3Kδ (P27986 whole entry partner, species assumed): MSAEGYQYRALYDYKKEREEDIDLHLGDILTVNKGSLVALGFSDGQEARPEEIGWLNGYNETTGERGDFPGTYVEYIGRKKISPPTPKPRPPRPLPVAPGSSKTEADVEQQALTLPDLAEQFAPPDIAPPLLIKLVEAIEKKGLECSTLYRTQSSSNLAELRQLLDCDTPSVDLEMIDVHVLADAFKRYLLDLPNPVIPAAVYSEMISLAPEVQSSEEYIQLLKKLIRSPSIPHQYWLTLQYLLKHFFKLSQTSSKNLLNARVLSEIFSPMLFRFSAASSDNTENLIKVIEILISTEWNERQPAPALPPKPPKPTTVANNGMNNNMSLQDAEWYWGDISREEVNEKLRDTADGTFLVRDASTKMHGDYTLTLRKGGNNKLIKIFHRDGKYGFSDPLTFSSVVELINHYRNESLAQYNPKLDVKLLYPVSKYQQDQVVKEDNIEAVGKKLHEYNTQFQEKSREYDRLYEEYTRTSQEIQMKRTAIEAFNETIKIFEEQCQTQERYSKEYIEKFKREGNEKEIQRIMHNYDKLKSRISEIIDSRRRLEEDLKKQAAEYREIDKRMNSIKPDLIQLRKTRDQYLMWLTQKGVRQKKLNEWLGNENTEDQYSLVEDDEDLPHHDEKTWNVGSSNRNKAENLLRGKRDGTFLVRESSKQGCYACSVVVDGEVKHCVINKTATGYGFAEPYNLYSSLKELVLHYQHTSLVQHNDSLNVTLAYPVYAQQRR

The term Cmax denotes the maximum level reached in the sampled fluid or tissue. Take `Cc1nc([C@@H](C)c2cc(Cl)c(F)c(C(=O)NCCN3CCN(C)CC3)c2OC(C)C)n2ccnc(N)c12.Cc1nc([C@@H](C)c2cc(Cl)c(F)c(C(=O)NCCN3CCN(C)CC3)c2OC(C)C)n2ccnc(N)c12.O=C(O)C(O)C(O)C(=O)O.O=C(O)C(O)C(O)C(=O)O.O=C(O)C(O)C(O)C(=O)O` [D-Tartarate (acid/base = 1.5:1)]: in data set [1], the AUC0-inf stood at 147.7 ng·h/mL, the AUC0-t is 54.9 ng·h/mL, the Cmax was 14.8 ng/mL and the “F % (n = 3)” value came to 3.4%. Further, in data set [1], the Kel is 0.06 h⁻¹, the t1/2 came to 12 h and the tmax is reported as 2.7 h.
On to `Cc1nc([C@@H](C)c2cc(Cl)c(F)c(C(=O)NCCN3CCN(C)CC3)c2OC(C)C)n2ccnc(N)c12` [Compound A, (S)-3-(1-(8-amino-1-methylimidazo[1,5-a]pyrazin-3-yl)ethyl)-5-chloro-6-fluoro-2-isopropoxy-N-(2-(4-methylpiperazin-1-yl)ethyl)benzamide], for which, in data set [2], the antitumor effects result is “dose-dependent antitumor effects”. The “inhibition of cellular growth” value in data set [3] is recorded as “inhibits cellular growth”. Besides, in data set [4], the “inhibition of PI3Kδ” value is “potent and selective inhibitor”.
`Cc1nc([C@@H](C)c2cc(Cl)c(F)c(C(=O)NCCN3CCN(C)CC3)c2OC(C)C)n2ccnc(N)c12.O=C(O)/C=C/C(=O)O` [Fumarate Type A]: the “water uptake in DVS” value in data set [5] (started from 25° C./70% RH) is ~21%.
On to `Cc1nc([C@@H](C)c2cc(Cl)c(F)c(C(=O)NCCN3CCN(C)CC3)c2OC(C)C)n2ccnc(N)c12.O=C(O)/C=C/C(=O)O` [Fumarate Type F], for which the “water uptake in DVS” value in data set [5] (started at 25° C./80% RH) was ~17%. Moreover, in data set [6], the “HPLC (area %), One week” value came to 99.9 area %; the “XRPD form after storage (form change)” value was “Type F”; the “difference of HPLC purity after storage” value is reported as “no obvious difference of HPLC purity”. In data set [6] (listed as fumarate Type F), the “XRPD form after storage (form change)” value is “no form change”. Further, in data set [6] (25° C./60% RH for 1 week), the “HPLC Area (%), RRT 1.00” value worked out at 99.88%; the “HPLC Area (%), RRT 1.06” value is on record as 0.05%; the “HPLC Area (%), RRT 1.08” value was found to be 0.02%; the “HPLC Area (%), RRT 1.13” value is recorded as 0.05%. Besides, in data set [6] (40° C./75% RH for 1 week), the “HPLC Area (%), RRT 1.00” value turned out to be 99.91%; the “HPLC Area (%), RRT 1.08” value amounted to 0.03%; the “HPLC Area (%), RRT 1.13” value amounted to 0.06%. For the same compound, in data set [6] (Initial), the “HPLC (area %), Initial” value is 99.9 area %; the “HPLC Area (%), RRT 1.00” value was determined as 99.95%; the “HPLC Area (%), RRT 1.13” value came to 0.05%.
Take `Cc1nc([C@@H](C)c2cc(Cl)c(F)c(C(=O)NCCN3CCN(C)CC3)c2OC(C)C)n2ccnc(N)c12.O=C(O)/C=C/C(=O)O` [Fumarate Type D]: the “humidity below which the form is speculated to be stable” value in data set [5] (from DVS, 25° C.) is recorded as “lower than 60 % RH”. Besides, in data set [5] (started at 25° C./60% RH, 60% to 0% RH, then 0% to 70% RH), the “mass change in DVS” value is listed as ~1.6%. Moreover, in data set [6], the “HPLC (area %), One week” value was 99.9 area %; the “XRPD form after storage (form change)” value was “Type D”; the “difference of HPLC purity after storage” value is given as “no obvious difference of HPLC purity”. Further, the “XRPD form after storage (form change)” value in data set [6] (listed as fumarate Type D) was “no form change”. Further, in data set [6] (25° C./60% RH for 1 week), the “HPLC Area (%), RRT 1.00” value is on record as 99.92%; the “HPLC Area (%), RRT 1.08” value turned out to be 0.02%; the “HPLC Area (%), RRT 1.13” value is recorded as 0.06%. In data set [6] (40° C./75% RH for 1 week), the “HPLC Area (%), RRT 1.00” value came to 99.90%; the “HPLC Area (%), RRT 1.08” value turned out to be 0.03%; the “HPLC Area (%), RRT 1.13” value is given as 0.07%. For the same compound, in data set [6] (Initial), the “HPLC (area %), Initial” value is listed as 99.9 area %; the “HPLC Area (%), RRT 1.00” value was 99.92%; the “HPLC Area (%), RRT 1.08” value amounted to 0.03%; the “HPLC Area (%), RRT 1.13” value is listed as 0.05%. In addition, in data set [1], the AUC0-inf is 356 ng·h/mL, the AUC0-t came to 210 ng·h/mL, the Cmax is 48.3 ng/mL and the “F % (n = 3)” value came out at 13.6%. In data set [1], the Kel is 0.0687 h⁻¹, the t1/2 is reported as 11 h and the tmax is listed as 2.45 h. In data set [7], the long-term stability result is “excellent long-term stability”.
